Results published in patent US20140162942A1, “INHIBITION OF CYP3A DRUG METABOLISM” (priority 2010, published 2014).
Like-named read-outs stand apart in the source and are kept apart here.

Columns and labels:
Format in all cases: in vitro ADME
[1] = target: T1, CYP2A6 (Homo sapiens, UniProt P11509); experiment: CYP2A6 inhibition, coumarin 7-hydroxylation in human liver microsomes; conditions: for Potential for Time-Dep. Inhibition: comparison with and without 30-minute pre-incubation; for inhibition at 5 min, 100 µM: human, pH 7.4, probe coumarin (7-hydroxylation)
T1 construct: Pooled human liver microsomes (from sixteen individuals) were used as the source of enzymes; tissue XenoTech, LLC; host or cells: human liver microsomes, pool of sixteen donors
T1 sequence (P11509 1-494): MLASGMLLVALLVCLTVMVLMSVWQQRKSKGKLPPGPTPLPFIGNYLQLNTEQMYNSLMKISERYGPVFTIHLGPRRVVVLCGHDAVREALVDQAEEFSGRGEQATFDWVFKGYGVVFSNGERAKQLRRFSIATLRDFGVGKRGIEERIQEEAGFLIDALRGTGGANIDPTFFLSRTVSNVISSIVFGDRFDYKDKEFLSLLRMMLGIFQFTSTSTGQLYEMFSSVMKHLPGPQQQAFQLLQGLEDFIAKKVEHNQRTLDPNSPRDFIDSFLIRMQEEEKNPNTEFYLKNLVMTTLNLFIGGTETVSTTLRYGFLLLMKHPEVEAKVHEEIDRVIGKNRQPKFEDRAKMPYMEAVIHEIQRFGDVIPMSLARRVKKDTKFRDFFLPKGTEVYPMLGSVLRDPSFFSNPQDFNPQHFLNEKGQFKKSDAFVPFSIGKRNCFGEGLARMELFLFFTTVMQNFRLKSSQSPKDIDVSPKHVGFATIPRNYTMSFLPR
Procedure: (§1) The basis for many of the following incubation conditions is described in the following references: Madan, et al., 2002,^(1) Huang, 2004,^(3) Ogilvie, et al., 2006,^(6) Pearce, et al., 1996,^(7) Tucker, et al., 2001,^(4) and Walsky and Obach, 2004.^(5) In general, incubations were conducted at approximately 37° C. in 400-μL incubation mixtures (target pH 7.4) containing high purity water, potassium phosphate buffer (50 mM), MgCl2 (3 mM), EDTA (1 mM), an NADPH-generating system [always the mixture of the following: NADP (1 mM), glucose-6-phosphate (5 mM), glucose-6-phosphate dehydrogenase (1 Unit/mL)], and marker substrate at the final concentrations indicated. Pooled human liver microsomes (from sixteen individuals) were used as the source of enzymes (Section 1.3.1.2). The concentrations of marker substrates were based on the Km and Vmax data that were determined previously (data not shown).
(§2) Due to the possibility that boceprevir may bind to microsomal protein or lipids, an attempt was made to design these experiments such that, in as many cases as possible, the microsomal protein, incubation time, and phosphate buffer concentration were 0.1 mg/mL, 5 minutes and 50 mM, respectively, for assays performed with human liver microsomes (Table 1). […] Since it is not imperative that the concentration of marker substrates be exactly equal to Km, the marker substrate concentrations were rounded up or down, as applicable, to simplify the experimental design (data not shown). […] Thus, the final incubation concentration of phenacetin was 60 μM (Table 1).
(§3) The ability of boceprevir to inhibit the CYP enzymes listed in Section 1.2.1 was investigated with a pool of sixteen individual human liver microsomal samples at the concentrations indicated in Table 1. Aliquots of the stock and/or working solutions of boceprevir were manually added to buffer mixtures containing the components described in Section 1.3.21. Incubation mixtures were prepared in bulk to obviate the need for directly pipetting very small volumes (i.e., 1 μL or less). Incubations containing no boceprevir (0 μM) contained the vehicle used to dissolve boceprevir (i.e., 1% methanol).
The Tecan liquid handling system conducted all remaining incubation steps, with the exception of the centrifugation. Aliquots of the buffer mixtures were then automatically added to 96-well plates at the appropriate locations in duplicate. Aliquots of a substrate working solution were added to the 96-well plates, prior to initiating reactions, to give the final concentrations indicated in Table 1. Reactions were initiated with the addition of an aliquot of an NADPH-generating system. Reactions were automatically terminated at approximately 5 minutes, by the addition of the appropriate internal standard (Table 5) and stop reagent; acetonitrile. Precipitated protein was removed by centrifugation (920 g for 10 minutes at 10° C.). Standards and quality control samples were similarly prepared with the addition of authentic metabolite standards.
To examine its ability to act as a time-dependent inhibitor, boceprevir (at the same concentrations used to evaluate direct inhibition) was pre-incubated at 37±1° C., in duplicate, with human liver microsomes and an NADPH-generating system for approximately 30 minutes. This pre-incubation allowed for the generation of intermediates that could inhibit human CYP enzymes. The pre-incubations were initiated with the addition of an aliquot of an NADPH-generating system. […] Reactions were automatically terminated, at approximately 5 minutes, by the addition of the appropriate internal standard (Table 5) and stop reagent; acetonitrile. Precipitated protein was removed by centrifugation (920 g for 10 minutes at 10° C.). Incubations containing no boceprevir (0 μM) and incubations that contained boceprevir but were not pre-incubated, served as negative controls.

[2] = target: T2, CYP2E1 (Homo sapiens, UniProt P05181); experiment: CYP2E1 inhibition, chlorzoxazone 6-hydroxylation in human liver microsomes; conditions: for Potential for Time-Dep. Inhibition: comparison with and without 30-minute pre-incubation
T2 construct: Pooled human liver microsomes (from sixteen individuals) were used as the source of enzymes; tissue XenoTech, LLC; host or cells: human liver microsomes, pool of sixteen donors
Procedure: as §1, §2, §3
The Tecan liquid handling system conducted all remaining incubation steps, with the exception of the centrifugation. Aliquots of the buffer mixtures were then automatically added to 96-well plates at the appropriate locations in duplicate. Aliquots of a substrate working solution were added to the 96-well plates, prior to initiating reactions, to give the final concentrations indicated in Table 1. Reactions were initiated with the addition of an aliquot of an NADPH-generating system. […]

[3] = test system: CYP3A4/5; experiment: Metabolite inhibitory complex (MIC) formation, human liver microsomes with high CYP3A4/5 activity; conditions: 3 μM, scans 380-520 nm for 15 minutes
Procedure: In an attempt to determine the mechanism in which boceprevir inactivated CYP3A4/5, an experiment was conducted to determine if boceprevir formed a spectrophotometrically detectable metabolite inhibitory complex with cytochrome P450 (i.e., peaks at approximately 452 nm).
In this experiment (summarized in Table 4), an individual human liver microsomal sample containing high levels of CYP3A4/5 activity (final protein concentration of 1 mg/mL, 1.7 nmol P450/mg protein) was added to the sample and reference cuvettes in a buffer mixture consisting of potassium phosphate (50 mM), and MgCl2 (3 mM) for a final volume of 980 μL. Baseline scans from 380 to 520 nm were recorded on a Varian Cary 100 BIO UV/Vis dual beam spectrophotometer. Boceprevir was then added to the sample cuvette in 10 μL of methanol for a final incubation concentration of 3 μM. A corresponding volume of the solvent (10 μL of methanol), used to dissolve boceprevir, was added to the reference. The reactions were initiated with 10 μL of β-NADPH added to both cuvettes to give a final volume of 1 mL. Continuous scans were conducted every minute for 15 minutes after the addition of β-NADPH. All scans were conducted at approximately 37° C. […]

[4] = direct inhibition, zero-minute pre-incubation, pooled human liver microsomes
[5] = time-dependent inhibition, 30-minute pre-incubation

T2 sequence (P05181 whole entry): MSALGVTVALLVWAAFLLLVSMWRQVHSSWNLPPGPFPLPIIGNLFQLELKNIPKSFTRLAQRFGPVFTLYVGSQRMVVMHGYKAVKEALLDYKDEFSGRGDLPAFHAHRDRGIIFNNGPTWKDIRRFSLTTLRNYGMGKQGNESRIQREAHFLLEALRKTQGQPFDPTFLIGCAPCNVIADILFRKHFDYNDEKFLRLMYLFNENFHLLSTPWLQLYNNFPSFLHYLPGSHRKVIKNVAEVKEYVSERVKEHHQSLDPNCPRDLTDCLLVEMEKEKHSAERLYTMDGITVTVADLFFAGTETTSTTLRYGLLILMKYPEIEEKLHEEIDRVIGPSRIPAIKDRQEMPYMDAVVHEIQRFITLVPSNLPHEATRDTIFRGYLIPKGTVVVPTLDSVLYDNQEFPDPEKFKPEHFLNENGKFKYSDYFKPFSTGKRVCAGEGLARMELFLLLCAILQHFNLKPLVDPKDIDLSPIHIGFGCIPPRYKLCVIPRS

## CC(C)(C)NC(=O)NC(C(=O)N1CC2C([C@H]1C(=O)NC(CC1CCC1)C(=O)C(N)=O)C2(C)C)C(C)(C)C (stereo partly drawn) [Boceprevir, (1R,2S,5S)—N-[(2Ξ)-4-amino-1-cyclobutyl-3,4-dioxobutan-2-yl]-3-{(2S)-2-[(tert-butylcarbamoyl)amino]-3,3-dimethylbutanoyl}-6,6-dimethyl-3-azabicyclo[3.1.0]hexane-2-carboxamide]
[1]
  Potential for Time-Dep. Inhibition: little or no
[1]; listed as boceprevir
  Potential for Time-Dep. Inhibition: no discernable time-dependent inhibition
[1]; [4]
  IC50: > 100 µM
[1]; pooled human liver microsomes, direct inhibition, zero-minute pre-incubation, read-out: Max. Inhib. at 100 μM
  inhibition at 5 min, 100 µM: 20%
[1]; pooled human liver microsomes, time-dependent inhibition, 30-minute pre-incubation, read-out: Maximum Inhibition at 100 μM
  inhibition at 5 min, 100 µM: 7.8%
[1]; [5]
  IC50: > 100 µM
[2]
  Potential for Time-Dep. Inhibition: little or no
[2]; listed as boceprevir
  Potential for Time-Dep. Inhibition: no discernable time-dependent inhibition
[2]; [4]
  IC50: > 100 µM
[2]; [5]
  IC50: > 100 µM
[3]
  Formation of a spectrally visible metabolite inhibitory complex (MIC): did not appear to form a spectrally visible MIC
